Measurements from patent US11370796B2, “Substituted pyrazoles as LRRK2 inhibitors” (OSCOTEC INC., priority 2017, dated 2022).
Read-outs that look alike come from different tables or passages of the source.

Target: LRRK2 (leucine-rich repeat kinase 2) (Homo sapiens (Human), UniProt Q5S007)
Test: Inhibitory effect on LRRK2 in vitro (LANCE kinase assay)
Format: biochemical
Experimental: The inhibitory effect of Compounds 1 to 62 on LRRK2 (leucine-rich repeat kinase 2) in vitro was measured. In the analysis of the results, IC50 values were calculated for a quantitative comparison of the in vitro activity.
After the compound was dissolved in 100% DMSO at 10 mM, it was serially diluted to the range of 1 μM to 10 μM using biochemical LRRK2 assay buffer (50 mM HEPES (4-(2-hydroxyethyl)-1-piperazineethanesulfonic acid) pH 7.5, 10 mM MgCl2, 1 mM EGTA (1,2-bis(o-aminophenoxy)ethane-N,N,N′,N′-tetraacetic acid), 2 mM DTT (dithiothreitol), and 0.01% TWEEN-20 (Aldrich)). Purified LRRK2 (CARNA BIOSCIENCES) was added to a black U-bottom 96-well microtiter plate containing 6 μl of the serially diluted compound, followed by incubation at room temperature for 30 minutes. For the kinase reaction, ATP and a substrate solution specific urea-polypeptide (ULIGHT™-poly TK, PerkinElimer) were added. The reaction was carried out at room temperature for 1 hour, and it was detected with an detection solution (brand name: LANCE™) containing EDTA. A LANCE detection solution containing europium-labeled antibody ([…] PT66) was added, followed by incubation at room temperature for 50 minutes, to terminate the kinase experiment. The phosphorylated substrate was detected by 665 nm emission measurement. IC50 values were calculated by a non-linear regression analysis using a Prism program (PRISM™ software) with reference to the absence of a kinase inhibitor.
As a comparative assay, a compound LRR2-IN-1, that known to be a reference compound for LRRK2 inhibitor, have also tested an inhibitory activity.

[1] = Table 1, class symbols, read-out: LRRK2 inhibition rate (IC50)
[2] = purified LRRK2, Table 6, read-out: IC50

Chain of LRRK2 (leucine-rich repeat kinase 2) (Q5S007 whole entry): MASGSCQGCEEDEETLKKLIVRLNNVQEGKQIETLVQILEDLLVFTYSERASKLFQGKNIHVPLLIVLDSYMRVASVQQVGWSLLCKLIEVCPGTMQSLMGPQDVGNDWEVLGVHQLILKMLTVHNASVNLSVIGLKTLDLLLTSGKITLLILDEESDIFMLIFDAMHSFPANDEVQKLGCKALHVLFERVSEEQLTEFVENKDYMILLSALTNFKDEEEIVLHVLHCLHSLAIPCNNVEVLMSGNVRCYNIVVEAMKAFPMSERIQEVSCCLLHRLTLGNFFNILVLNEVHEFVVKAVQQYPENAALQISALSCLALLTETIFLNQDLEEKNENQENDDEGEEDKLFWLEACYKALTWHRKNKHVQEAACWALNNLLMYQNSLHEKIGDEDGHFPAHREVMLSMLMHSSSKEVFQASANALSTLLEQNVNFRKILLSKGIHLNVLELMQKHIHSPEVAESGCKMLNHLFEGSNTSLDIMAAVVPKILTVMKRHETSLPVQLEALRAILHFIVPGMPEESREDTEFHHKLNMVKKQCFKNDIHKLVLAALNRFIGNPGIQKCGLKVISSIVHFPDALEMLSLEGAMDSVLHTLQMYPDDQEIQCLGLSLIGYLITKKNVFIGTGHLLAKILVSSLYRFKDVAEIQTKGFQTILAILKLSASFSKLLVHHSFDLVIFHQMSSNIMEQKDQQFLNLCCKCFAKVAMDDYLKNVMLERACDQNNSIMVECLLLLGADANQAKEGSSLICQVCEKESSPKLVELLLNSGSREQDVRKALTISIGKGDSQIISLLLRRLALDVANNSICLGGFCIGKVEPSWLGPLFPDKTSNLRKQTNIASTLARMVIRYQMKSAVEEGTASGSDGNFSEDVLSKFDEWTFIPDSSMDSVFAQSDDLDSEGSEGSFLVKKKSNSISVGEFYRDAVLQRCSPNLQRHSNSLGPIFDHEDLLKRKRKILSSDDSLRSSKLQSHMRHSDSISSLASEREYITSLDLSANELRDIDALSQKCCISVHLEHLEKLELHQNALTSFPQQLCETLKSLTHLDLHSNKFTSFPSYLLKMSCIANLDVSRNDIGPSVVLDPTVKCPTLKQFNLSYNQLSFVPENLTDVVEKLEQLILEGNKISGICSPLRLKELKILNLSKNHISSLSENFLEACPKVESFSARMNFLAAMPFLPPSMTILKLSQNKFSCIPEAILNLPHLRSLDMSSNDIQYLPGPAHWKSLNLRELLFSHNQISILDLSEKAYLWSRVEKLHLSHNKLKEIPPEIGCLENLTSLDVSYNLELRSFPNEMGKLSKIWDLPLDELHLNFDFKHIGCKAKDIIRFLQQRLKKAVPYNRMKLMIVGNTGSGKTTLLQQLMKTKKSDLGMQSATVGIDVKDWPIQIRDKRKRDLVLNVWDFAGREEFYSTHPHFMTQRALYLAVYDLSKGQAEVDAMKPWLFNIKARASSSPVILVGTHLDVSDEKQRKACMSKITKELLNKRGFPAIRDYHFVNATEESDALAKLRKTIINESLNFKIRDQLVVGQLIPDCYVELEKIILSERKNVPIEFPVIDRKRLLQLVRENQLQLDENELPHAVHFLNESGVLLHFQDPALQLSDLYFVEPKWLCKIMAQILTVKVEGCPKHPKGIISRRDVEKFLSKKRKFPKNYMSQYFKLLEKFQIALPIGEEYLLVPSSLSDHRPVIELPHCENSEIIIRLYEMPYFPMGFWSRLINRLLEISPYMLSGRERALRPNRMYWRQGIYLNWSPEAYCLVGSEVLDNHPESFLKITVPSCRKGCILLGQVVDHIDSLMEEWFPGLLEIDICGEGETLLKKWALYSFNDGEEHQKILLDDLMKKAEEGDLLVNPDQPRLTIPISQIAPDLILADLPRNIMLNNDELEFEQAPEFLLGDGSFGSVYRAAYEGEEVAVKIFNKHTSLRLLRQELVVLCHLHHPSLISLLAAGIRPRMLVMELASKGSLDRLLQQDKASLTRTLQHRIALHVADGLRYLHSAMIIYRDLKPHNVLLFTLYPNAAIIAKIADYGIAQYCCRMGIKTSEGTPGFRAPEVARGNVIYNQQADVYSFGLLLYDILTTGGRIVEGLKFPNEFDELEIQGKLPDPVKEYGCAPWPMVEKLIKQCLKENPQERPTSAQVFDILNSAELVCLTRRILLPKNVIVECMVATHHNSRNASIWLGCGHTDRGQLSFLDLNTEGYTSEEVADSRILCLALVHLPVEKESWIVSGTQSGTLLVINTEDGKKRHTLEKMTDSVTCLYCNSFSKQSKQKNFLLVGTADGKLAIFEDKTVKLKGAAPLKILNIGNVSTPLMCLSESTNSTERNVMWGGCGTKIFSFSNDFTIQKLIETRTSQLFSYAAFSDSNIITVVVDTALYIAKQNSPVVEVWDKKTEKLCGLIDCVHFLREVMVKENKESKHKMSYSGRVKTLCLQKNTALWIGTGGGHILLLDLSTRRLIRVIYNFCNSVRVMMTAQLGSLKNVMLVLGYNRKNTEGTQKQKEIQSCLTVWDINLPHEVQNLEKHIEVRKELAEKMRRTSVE

| SMILES | IC50 [1] [nM] | IC50 [2] [nM] |
| --- | --- | --- |
| CCn1nc(Cl)c2cnc(Nc3c(Cl)nn(C4CCN(C(=O)C5CC5)CC4)c3C)nc21 [Compound 56, (4-(3-chloro-4-(3-chloro-1-ethyl-1H-pyrazolo[3,4-d]pyrimidin-6-ylamino)-5-methyl-1H-pyrazol-1-yl)piperidin-1-yl)(cyclopropyl)methanone] | 100 to 1000 |  |
| Cn1ncc(Nc2ncc3c(C(F)(F)F)cn(C)c3n2)c1Cl [Compound 1, N-(5-chloro-1-methyl-1H-pyrazol-4-yl)-7-methyl-5-(trifluoromethyl)-7H-pyrrolo[2,3-d]pyrimidin-2-amine] | 100 to 1000 |  |
| FC(F)(F)Cn1nc(Cl)c2cnc(Nc3cnn(C4CCN(C5COC5)CC4)c3Cl)nc21 [Compound 50, 3-chloro-N-(5-chloro-1-(1-(oxetan-3-yl)piperidin-4-yl)-1H-pyrazol-4-yl)-1-(2,2,2-trifluoroethyl)-1H-pyrazolo[3,4-d]pyrimidin-6-amine] | 10 to 100 |  |
| CS(=O)(=O)N1CCC(n2cc(Nc3ncc4c(Cl)nn(C5CC5)c4n3)c(Cl)n2)CC1 [Compound 46, 3-chloro-N-(3-chloro-1-(1-(methylsulfonyl)piperidin-4-yl)-1H-pyrazol-4-yl)-1-cyclopropyl-1H-pyrazolo[3,4-d]pyrimidin-6-amine] | < 10 | 7.91 |
| CCn1nc(Cl)c2cnc(Nc3cnn(C4CN(C5COC5)C4)c3Cl)nc21 [Compound 61, 3-chloro-N-(5-chloro-1-(1-(oxetan-3-yl)azetidin-3-yl)-1H-pyrazol-4-yl)-1-ethyl-1H-pyrazolo[3,4-d]pyrimidin-6-amine] | 10 to 100 |  |
| CC(C)n1cc(Nc2ncc3c(Cl)cn(C)c3n2)c(C(F)(F)F)n1 [Compound 9, 5-chloro-N-(1-isopropyl-3-(trifluoromethyl)-1H-pyrazol-4-yl)-7-methyl-7H-pyrrolo[2,3-d]pyrimidin-2-amine] | 100 to 1000 |  |
| CC(C)n1cc(Nc2ncc3c(Cl)cn(C(C)C)c3n2)c(Cl)n1 [Compound 7, 5-chloro-N-(3-chloro-1-isopropyl-1H-pyrazol-4-yl)-7-isopropyl-7H-pyrrolo[2,3-d]pyrimidin-2-amine] | 10 to 100 |  |
| CCn1nc(Cl)c2cnc(Nc3cn(C4CCCN(C(=O)C5CC5)CC4)nc3Cl)nc21 (centres unmarked) [Compound 52, (4-(3-chloro-4-(3-chloro-1-ethyl-1H-pyrazolo[3,4-d]pyrimidin-6-ylamino)-1H-pyrazol-1-yl)azepan-1-yl)(cyclopropyl)methanone] | < 10 | 5.6 |
| CS(=O)(=O)N1CCC(n2cc(Nc3ncc4c(Cl)nn(CC(F)(F)F)c4n3)c(Cl)n2)CC1 [Compound 49, 3-chloro-N-(3-chloro-1-(1-(methylsulfonyl)piperidin-4-yl)-1H-pyrazol-4-yl)-1-(2,2,2-trifluoroethyl)-1H-pyrazolo[3,4-d]pyrimidin-6-amine] | 10 to 100 |  |
| Cn1cc(Cl)c2cnc(Nc3cnn(C4CCN(C5COC5)CC4)c3Cl)nc21 [Compound 27, 5-chloro-N-(5-chloro-1-(1-(oxetan-3-yl)piperidin-4-yl)-1H-pyrazol-4-yl)-7-methyl-7H-pyrrolo[2,3-d]pyrimidin-2-amine] | 10 to 100 |  |
| CCCCn1cc(Nc2ncc3c(Cl)cn(C)c3n2)c(C(F)(F)F)n1 [Compound 11, N-(1-butyl-3-(trifluoromethyl)-1H-pyrazol-4-yl)-5-chloro-7-methyl-7H-pyrrolo[2,3-d]pyrimidin-2-amine] | 1000 to 10000 |  |
| CCn1cc(Cl)c2cnc(Nc3cnn(C4COC4)c3Cl)nc21 [Compound 16, 5-chloro-N-(5-chloro-1-(oxetan-3-yl)-1H-pyrazol-4-yl)-7-ethyl-7H-pyrrolo[2,3-d]pyrimidin-2-amine] | 10 to 100 |  |
| Clc1cn(C2CC2)c2nc(Nc3cnn(C4CCN(C5COC5)CC4)c3Cl)ncc12 [Compound 29, 5-chloro-N-(5-chloro-1-(1-(oxetan-3-yl)piperidin-4-yl)-1H-pyrazol-4-yl)-7-cyclopropyl-7H-pyrrolo[2,3-d]pyrimidin-2-amine] | 10 to 100 |  |
| Cn1ncc(Nc2ncc3c(Cl)cn(C)c3n2)c1Cl [Compound 5, 5-chloro-N-(5-chloro-1-methyl-1H-pyrazol-4-yl)-7-methyl-7H-pyrrolo[2,3-d]pyrimidin-2-amine] | 10 to 100 |  |
| COc1nn(C(C)C)cc1Nc1ncc2c(Cl)cn(C)c2n1 [Compound 2, 5-chloro-N-(1-isopropyl-3-methoxy-1H-pyrazol-4-yl)-7-methyl-7H-pyrrolo[2,3-d]pyrimidin-2-amine] | 10 to 100 |  |

The next lines start with the values.

| IC50 [1] [nM] | IC50 [2] [nM] | SMILES |
| --- | --- | --- |
| 10 to 100 |  | CCn1cc(Cl)c2cnc(Nc3cn(C4CN(C(=O)C5CC5)C4)nc3Cl)nc21 [Compound 41, (3-(3-chloro-4-(5-chloro-7-ethyl-7H-pyrrolo[2,3-d]pyrimidin-2-ylamino)-1H-pyrazol-1-yl)azetidin-1-yl)(cyclopropyl)methanone] |
| 10 to 100 |  | Clc1nn(C2CC2)cc1Nc1ncc2c(Cl)cn(C3CC3)c2n1 [Compound 15, 5-chloro-N-(3-chloro-1-cyclopropyl-1H-pyrazol-4-yl)-7-cyclopropyl-7H-pyrrolo[2,3-d]pyrimidin-2-amine] |
| < 10 |  | CCn1cc(Cl)c2cnc(Nc3cn(C4CCCN(C(=O)C5CC5)CC4)nc3Cl)nc21 (centres unmarked) [Compound 43, (4-(3-chloro-4-(5-chloro-7-ethyl-7H-pyrrolo[2,3-d]pyrimidin-2-ylamino)-1H-pyrazol-1-yl)azepan-1-yl)(cyclopropyl)methanone] |
| 10 to 100 |  | CCN1CCC(n2cc(Nc3ncc4c(Cl)cn(CC)c4n3)c(Cl)n2)CC1 [Compound 20, 5-chloro-N-(3-chloro-1-(1-ethylpiperidin-4-yl)-1H-pyrazol-4-yl)-7-ethyl-7H-pyrrolo[2,3-d]pyrimidin-2-amine] |
| < 10 | 3.94 | CCn1nc(Cl)c2cnc(Nc3cn(C4CCN(S(=O)(=O)CC)CC4)nc3Cl)nc21 [Compound 59, 3-chloro-N-(3-chloro-1-(1-(ethylsulfonyl)piperidin-4-yl)-1H-pyrazol-4-yl)-1-ethyl-1H-pyrazolo[3,4-d]pyrimidin-6-amine] |
| 10 to 100 |  | CCn1cc(Cl)c2cnc(Nc3cn(C4CCN(C(=O)C5CC5)CC4)nc3Cl)nc21 [Compound 24, (4-(3-chloro-4-(5-chloro-7-ethyl-7H-pyrrolo[2,3-d]pyrimidin-2-ylamino)-1H-pyrazol-1-yl)piperidin-1-yl)(cyclopropyl)methanone] |
| 10 to 100 |  | CCn1cc(Cl)c2cnc(Nc3cn(CC4CC4)nc3Cl)nc21 [Compound 13, 5-chloro-N-(3-chloro-1-(cyclopropylmethyl)-1H-pyrazol-4-yl)-7-ethyl-7H-pyrrolo[2,3-d]pyrimidin-2-amine] |
| < 10 |  | CCn1cc(Cl)c2cnc(Nc3cn(C4CCCN(S(C)(=O)=O)CC4)nc3Cl)nc21 (centres unmarked) [Compound 42, 5-chloro-N-(3-chloro-1-(1-(methylsulfonyl)azepan-4-yl)-1H-pyrazol-4-yl)-7-ethyl-7H-pyrrolo[2,3-d]pyrimidin-2-amine] |
| 10 to 100 |  | CCn1cc(Cl)c2cnc(Nc3cn([C@H]4CCN(S(C)(=O)=O)C4)nc3Cl)nc21 [Compound 37, (S)-5-chloro-N-(3-chloro-1-(1-(methylsulfonyl)pyrrolidin-3-yl)-1H-pyrazol-4-yl)-7-ethyl-7H-pyrrolo[2,3-d]pyrimidin-2-amine] |
| 10 to 100 |  | CCn1nc(Cl)c2cnc(Nc3cn(C4CCN(C(=O)C(F)(F)F)CC4)nc3Cl)nc21 [Compound 48, 1-(4-(3-chloro-4-(3-chloro-1-ethyl-1H-pyrazolo[3,4-d]pyrimidin-6-ylamino)-1H-pyrazol-1-yl)piperidin-1-yl)-2,2,2-trifluoroethanone] |
| < 10 | 6.67 | CCn1cc(Cl)c2cnc(Nc3cn(C4CCN(S(C)(=O)=O)CC4)nc3Cl)nc21 [Compound 25, 5-chloro-N-(3-chloro-1-(1-(methylsulfonyl)piperidin-4-yl)-1H-pyrazol-4-yl)-7-ethyl-7H-pyrrolo[2,3-d]pyrimidin-2-amine] |
| 10 to 100 |  | CCn1cc(Cl)c2cnc(Nc3cn(C4CC(C)OC(C)C4)nc3Cl)nc21 (centres unmarked) [Compound 19, 5-chloro-N-(3-chloro-1-(2,6-dimethyltetrahydro-2H-pyran-4-yl)-1H-pyrazol-4-yl)-7-ethyl-7H-pyrrolo[2,3-d]pyrimidin-2-amine] |
| 10 to 100 |  | CCn1cc(Cl)c2cnc(Nc3cn(C4CN(S(C)(=O)=O)C4)nc3Cl)nc21 [Compound 40, 5-chloro-N-(3-chloro-1-(1-(methylsulfonyl)azetidin-3-yl)-1H-pyrazol-4-yl)-7-ethyl-7H-pyrrolo[2,3-d]pyrimidin-2-amine] |
| 100 to 1000 |  | Cn1cc(Cl)c2cnc(Nc3cn(C4CCOCC4)nc3C(F)(F)F)nc21 [Compound 4, 5-chloro-7-methyl-N-(1-(tetrahydro-2H-pyran-4-yl)-3-(trifluoromethyl)-1H-pyrazol-4-yl)-7H-pyrrolo[2,3-d]pyrimidin-2-amine] |
| < 10 | 4.49 | CCn1nc(Cl)c2cnc(Nc3cn(C4CCN(S(C)(=O)=O)CC4)nc3Cl)nc21 [Compound 55, 3-chloro-N-(3-chloro-1-(1-(methylsulfonyl)piperidin-4-yl)-1H-pyrazol-4-yl)-1-ethyl-1H-pyrazolo[3,4-d]pyrimidin-6-amine] |
